Reference: the supplement of paper PMC10307832

How the values were obtained:
Assay in all cases: relative viability (nuclei count vs DMSO), 5 days (fraction); higher = more cells survive
[1] = compound: O=c1[nH]cc(F)c(=O)[nH]1 [5-Fluorouracil] + Nc1ncn([C@H]2C[C@H](O)[C@@H](CO)O2)c(=O)n1 [Decitabine] (partner 2 µM)
How it was run: (§1)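 One day after seeding in 1536-well plates, lung cancer cell lines were dosed by pin tool. Dosing was either single-drug or a fixed anchor-drug dose plus five library-drug doses (not always all listed) in √10 steps. After 5 days, nuclei were stained in one fix-and-stain step and counted on 4× images, and relative viability is the nuclei count of treated wells over that of vehicle wells, given as the median of duplicate plates.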

[2] = compound: CC1=C(CC(=O)O)c2cc(F)ccc2/C1=C\c1ccc([S+](C)[O-])cc1 [Sulindac] + CS(=O)(=O)CCNCc1ccc(-c2ccc3ncnc(Nc4ccc(OCc5cccc(F)c5)c(Cl)c4)c3c2)o1 [Lapatinib] (partner 2 µM)
How it was run: as §1

[3] = compound: O=c1[nH]cc(F)c(=O)[nH]1 [5-Fluorouracil] + CS(=O)(=O)N1CCN(Cc2cc3nc(-c4cccc5[nH]ncc45)nc(N4CCOCC4)c3s2)CC1 [Pictilisib] (partner 1 µM)
How it was run: as §1

[4] = compound: O=c1[nH]cc(F)c(=O)[nH]1 [5-Fluorouracil] + CC(=O)c1c(C)c2cnc(Nc3ccc(N4CCNCC4)cn3)nc2n(C2CCCC2)c1=O [Palbociclib] (partner 0.5 µM)
How it was run: as §1

| Cell Line | relative viability ([1]; first compound 0.02 µM) | relative viability ([1]; first compound 0.2 µM) | relative viability ([1]; first compound 0.6325 µM) | relative viability ([1]; first compound 2 µM) | relative viability ([2]; first compound 0.08 µM) | relative viability ([2]; first compound 0.253 µM) | relative viability ([2]; first compound 0.8 µM) | relative viability ([2]; first compound 2.53 µM) | relative viability ([2]; first compound 8 µM) | relative viability ([3]; first compound 0.02 µM) | relative viability ([3]; first compound 0.2 µM) | relative viability ([3]; first compound 0.6325 µM) | relative viability ([3]; first compound 2 µM) | relative viability ([4]; first compound 0.02 µM) | relative viability ([4]; first compound 0.2 µM) | relative viability ([4]; first compound 0.6325 µM) | relative viability ([4]; first compound 2 µM) |
| --- | --- | --- | --- | --- | --- | --- | --- | --- | --- | --- | --- | --- | --- | --- | --- | --- | --- |
| HOP-62 | 0.247 | 0.211 | 0.256 | 0.246 | 1.19 | 1.24 | 0.929 | 1.15 | 1.19 | 0.711 | 0.879 | 0.705 | 0.569 | 0.409 | 0.573 | 0.404 | 0.439 |
| IA-LM |  |  |  |  | 0.724 | 0.8 | 0.68 | 0.782 | 0.798 | 0.459 | 0.286 | 0.256 | 0.209 |  |  |  |  |
| LC-2-ad | 0.806 | 0.725 | 0.561 | 0.417 | 1.1 | 1.04 | 0.893 | 1.02 | 1.02 | 0.57 | 0.442 | 0.324 | 0.231 | 0.519 | 0.523 | 0.467 | 0.325 |
| LCLC-97TM1 | 0.242 | 0.269 | 0.207 | 0.201 | 0.962 | 1.45 | 0.83 |  | 1.37 | 0.184 | 0.235 | 0.133 | 0.139 | 0.221 | 0.228 | 0.215 | 0.157 |
| LCLC-103H | 0.734 | 0.636 | 0.652 | 0.524 |  |  |  |  |  | 0.61 | 0.598 | 0.536 | 0.447 | 0.476 | 0.472 | 0.471 | 0.471 |
| LK-2 | 0.328 | 0.341 | 0.334 | 0.269 | 1.05 | 0.835 |  |  | 1.15 | 0.635 | 0.575 | 0.374 | 0.452 | 0.568 | 0.618 | 0.155 | 0.257 |
| LOU-NH91 | 0.873 | 0.874 | 0.838 | 0.534 | 0.899 | 0.72 | 0.682 | 0.669 | 0.831 | 0.512 | 0.47 | 0.388 | 0.34 | 0.545 | 0.536 | 0.541 | 0.399 |
| LU99A | 0.898 | 0.898 | 0.731 | 0.483 | 1.33 | 1.11 | 0.854 | 0.869 | 1.01 | 0.289 | 0.314 | 0.317 | 0.261 | 0.441 | 0.419 | 0.361 | 0.257 |
| LXF-289 | 0.384 | 0.402 | 0.34 | 0.323 | 0.956 | 0.972 | 0.87 | 0.919 | 0.941 | 0.787 | 0.689 | 0.421 | 0.295 | 0.596 | 0.578 | 0.312 | 0.283 |
| NCI-H23 | 0.33 | 0.295 | 0.367 | 0.279 | 1.26 | 1.17 | 0.996 | 0.98 | 1.3 | 0.565 | 0.53 | 0.374 | 0.251 | 0.527 | 0.551 | 0.325 | 0.245 |
| NCI-H322M | 0.638 | 0.616 | 0.774 | 0.676 | 0.632 | 0.626 | 0.523 | 0.565 | 0.561 | 0.564 | 0.536 | 0.529 | 0.427 |  |  |  |  |
| NCI-H358 | 0.187 | 0.224 | 0.214 | 0.225 | 0.457 | 0.439 | 0.474 | 0.44 | 0.564 | 0.337 | 0.354 | 0.337 | 0.294 | 0.157 | 0.146 | 0.15 | 0.177 |
| NCI-H441 | 0.252 | 0.226 | 0.254 | 0.26 |  |  |  |  |  | 0.453 | 0.442 | 0.35 | 0.243 | 0.238 | 0.264 | 0.178 | 0.249 |
| NCI-H460 | 0.484 | 0.38 | 0.111 | 0.0586 | 1.97 | 1.38 |  | 1.12 | 1.19 | 0.443 | 0.384 | 0.155 | 0.0868 | 0.236 | 0.167 | 0.046 | 0.045 |
| NCI-H520 | 0.505 | 0.556 | 0.479 | 0.552 | 0.956 | 0.944 | 0.793 | 0.755 | 1.14 | 0.316 | 0.272 | 0.271 | 0.232 | 0.177 | 0.271 | 0.218 | 0.167 |
| NCI-H522 | 0.642 | 0.58 | 0.622 | 0.722 |  |  |  |  |  |  |  |  |  | 1 | 1.05 | 0.96 | 0.992 |
| NCI-H596 | 1.15 | 0.999 | 0.902 | 0.706 | 1.02 | 0.983 | 1.01 | 0.973 | 1.21 | 0.47 | 0.375 | 0.365 | 0.365 |  |  |  |  |
| NCI-H647 | 0.367 | 0.383 | 0.39 | 0.391 | 1.22 | 1.13 | 0.651 | 1.38 | 1.32 | 0.473 | 0.483 | 0.429 | 0.401 | 0.343 | 0.516 | 0.308 | 0.358 |
| NCI-H1299 |  |  |  |  | 1.06 | 0.927 | 0.96 | 0.942 | 1.06 | 0.953 | 0.634 | 0.474 | 0.248 |  |  |  |  |
| NCI-H1563 |  |  |  |  | 0.992 | 0.901 | 0.884 | 0.879 | 0.933 | 0.662 | 0.601 | 0.647 | 0.671 |  |  |  |  |
| NCI-H1648 | 0.541 | 0.528 | 0.47 | 0.371 |  |  |  |  |  |  |  |  |  | 0.297 | 0.267 | 0.281 | 0.241 |
| NCI-H1703 |  |  |  |  | 1.37 | 1.37 | 0.97 | 1.25 | 1.08 | 0.283 | 0.25 | 0.275 | 0.24 |  |  |  |  |
| NCI-H2228 |  |  |  |  | 1.4 | 1.3 | 0.575 | 1 | 0.917 | 0.378 | 0.309 | 0.205 | 0.201 | 0.79 | 0.733 | 0.509 | 0.356 |
| NCI-H2342 | 0.726 | 0.682 | 0.698 | 0.739 |  |  |  |  |  |  |  |  |  | 0.497 | 0.543 | 0.536 | 0.518 |
| SW 900 | 0.415 | 0.362 | 0.407 | 0.431 |  |  |  |  |  |  |  |  |  | 0.481 | 0.473 | 0.497 | 0.416 |
